Data on five compounds can be found in ChEMBL document CHEMBL5143616, “Novel biphenyl-based scaffold as potent and selective histone deacetylase 6 (HDAC6) inhibitors: Identification, development and pharmacological evaluation” (Eur J Med Chem, 2022).

By IC50 is commonly meant the concentration needed to halve the response being measured. A word on the half-life: it is the time in which the quantity being followed falls by half.

Series [1] addresses T1, Protein deacetylase HDAC6 (Mus musculus) (UniProt Q9Z2V5).
T1 sequence (whole entry): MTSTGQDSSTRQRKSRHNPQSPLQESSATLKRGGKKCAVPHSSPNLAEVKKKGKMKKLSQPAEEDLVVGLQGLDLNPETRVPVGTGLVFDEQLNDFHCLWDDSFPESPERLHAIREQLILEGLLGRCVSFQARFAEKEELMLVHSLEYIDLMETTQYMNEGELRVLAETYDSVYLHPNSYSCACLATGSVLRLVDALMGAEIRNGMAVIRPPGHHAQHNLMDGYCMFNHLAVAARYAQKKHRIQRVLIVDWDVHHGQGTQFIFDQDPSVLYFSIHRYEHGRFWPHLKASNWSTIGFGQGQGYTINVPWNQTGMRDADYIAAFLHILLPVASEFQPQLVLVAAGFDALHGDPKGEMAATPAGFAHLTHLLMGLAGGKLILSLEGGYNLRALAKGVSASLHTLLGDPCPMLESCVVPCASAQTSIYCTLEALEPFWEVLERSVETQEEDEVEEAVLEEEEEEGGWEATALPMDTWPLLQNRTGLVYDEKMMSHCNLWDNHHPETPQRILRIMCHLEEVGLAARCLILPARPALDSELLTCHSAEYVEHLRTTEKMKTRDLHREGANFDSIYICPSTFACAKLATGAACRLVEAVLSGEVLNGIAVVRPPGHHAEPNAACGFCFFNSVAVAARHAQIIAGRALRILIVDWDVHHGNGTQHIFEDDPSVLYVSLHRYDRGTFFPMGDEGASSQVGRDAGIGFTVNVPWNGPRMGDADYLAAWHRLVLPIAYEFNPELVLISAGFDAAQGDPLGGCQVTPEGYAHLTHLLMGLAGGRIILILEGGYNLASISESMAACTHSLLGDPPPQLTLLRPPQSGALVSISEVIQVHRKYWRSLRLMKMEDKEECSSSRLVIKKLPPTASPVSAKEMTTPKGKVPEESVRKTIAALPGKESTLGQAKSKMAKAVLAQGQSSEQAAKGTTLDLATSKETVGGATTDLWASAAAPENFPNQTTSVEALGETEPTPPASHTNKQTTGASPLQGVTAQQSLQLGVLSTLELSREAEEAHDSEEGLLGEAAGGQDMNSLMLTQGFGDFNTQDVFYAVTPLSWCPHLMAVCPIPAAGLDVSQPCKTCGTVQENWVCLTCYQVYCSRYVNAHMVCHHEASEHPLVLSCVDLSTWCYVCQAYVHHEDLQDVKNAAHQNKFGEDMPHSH
In words: Inhibition of HDAC6 in mouse CT26 cells assessed as accumulation of acetylated alpha-tubulin level at 2 to 6 uM after 24 hrs by Western blotting analysis. It counts as cell-based. The note with it: dose 2-6 µM, DDE = dose-dependent effect. In general terms: In western blotting, separated proteins are transferred to a membrane and probed.

Series [2] addresses T1, Protein deacetylase HDAC6 (Mus musculus). In words: Inhibition of HDAC6 in mouse B16 cells assessed as accumulation of acetylated alpha-tubulin level after 24 hrs by Western blotting analysis. It counts as cell-based.
Series [3] concerns the target T2, Histone deacetylase 8 (Homo sapiens, UniProt Q9BY41).
T2 sequence (Q9BY41 whole entry): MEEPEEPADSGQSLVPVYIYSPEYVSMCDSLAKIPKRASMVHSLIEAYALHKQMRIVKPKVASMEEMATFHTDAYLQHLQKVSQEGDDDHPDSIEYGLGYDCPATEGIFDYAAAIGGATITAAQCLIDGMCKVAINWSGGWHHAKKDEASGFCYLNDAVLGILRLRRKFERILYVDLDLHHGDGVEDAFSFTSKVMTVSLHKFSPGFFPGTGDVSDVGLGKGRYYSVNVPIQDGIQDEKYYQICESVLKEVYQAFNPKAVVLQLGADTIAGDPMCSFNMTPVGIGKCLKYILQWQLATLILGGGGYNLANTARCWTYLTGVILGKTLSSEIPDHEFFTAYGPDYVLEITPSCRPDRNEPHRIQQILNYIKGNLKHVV
In words: Inhibition of HDAC8 (unknown origin) using Boc-Lys-(triflouroacetyl)-AMC as substrate incubated for 0.5 hr and measured after 20 mins by fluorescence assay.

The target in series [4] is T1, Protein deacetylase HDAC6 (Mus musculus). In words: Inhibition of HDAC6 in mouse B16 cells assessed as accumulation of acetylated alpha-tubulin level at 2 to 6 uM after 24 hrs by Western blotting analysis. It counts as cell-based. The note with it: dose 2-6 µM, DDE = dose-dependent effect.
Series [5] in a line: Stability in human liver microsomes assessed as half-life and measured by LC-MS/MS analysis. It counts as ADME, Microsome.
Series [6] has as its target Histone deacetylase 3 (Homo sapiens, UniProt O15379). In words: Inhibition of HDAC3 (unknown origin).
A short description of series [7]: Stability in mouse plasma incubated for 6 hrs in presence of NADPH and measured by LC-MS/MS analysis. The following applies: read-out: Stability. It counts as ADME, cell-free.
The nature of series [8]: Stability in human liver microsomes assessed as clearance and measured by LC-MS/MS analysis. It counts as ADME, Microsome. The following applies: read-out: CLH.
A short description of series [9]: Stability in mouse liver microsomes assessed as clearance and measured by LC-MS/MS analysis. It counts as ADME, Microsome. The note with it: read-out: CLH. In general terms: Liver microsomes are a subcellular fraction often used to study metabolism.
In series [10] the target is Histone deacetylase 2 (Homo sapiens, UniProt Q92769).
Description: Inhibition of HDAC2 (unknown origin) using Boc-Lys-(acetyl)-AMC as substrate incubated for 0.5 hr and measured after 20 mins by fluorescence assay
Series [11] can be described thus: Stability in human plasma incubated for 6 hrs in presence of NADPH and measured by LC-MS/MS analysis. It counts as ADME, cell-free. The note with it: read-out: Stability.
Series [12] deals with T1, Protein deacetylase HDAC6 (Mus musculus). In words: Inhibition of HDAC6 in mouse B16 cells assessed as accumulation of acetylated alpha-tubulin level at 6 uM after 2 to 12 hrs by Western blotting analysis. It counts as cell-based. The note with it: time 2-12 hrs, TDE = time-dependent effect.
Series [13] can be described thus: Stability in mouse liver microsomes assessed as half-life and measured by LC-MS/MS analysis. It counts as ADME, Microsome.
Series [14] deals with T1, Protein deacetylase HDAC6 (Mus musculus). In words: Inhibition of HDAC6 in mouse CT26 cells assessed as accumulation of acetylated alpha-tubulin level at 6 uM after 2 to 24 hrs by Western blotting analysis. The note with it: time 2-24 hrs, TDE = time-dependent effect. It counts as cell-based.
Series [15] concerns CT26. In words: Antitumor immunity in C57BL/6 mouse xenografted with mouse CT26 cells assessed as increase in CD3+ CD8+ cytotoxic T cells at 100 mg/kg, po administered once daily for 21 days measured by flow cytometry analysis. The following applies: time 21 day. It counts as functional. (In general: Flow cytometry measures light scatter and fluorescence of single cells or particles in a stream.)

Series [16] deals with CT26. In words: Antitumor immunity in C57BL/6 mouse xenografted with mouse CT26 cells assessed as decrease in number of CD4+CD25+ CD127- T regulatory cells at 100 mg/kg, po administered once daily for 21 days measured by flow cytometry analysis. Set-up: scale not given: the % may be the effect or the level left. It counts as functional. The note with it: time 21 day.
Series [17] relates to CT26. In words: Antitumor immunity in C57BL/6 mouse xenografted with mouse CT26 cells assessed as decrease in number of CD8+IFNgamma+ T cells at 100 mg/kg, po administered once daily for 21 days measured by flow cytometry analysis. The note with it: time 21 day. It counts as functional. Set-up: scale not given: the % may be the effect or the level left.
Series [18] relates to CT26. In words: Antitumor immunity in C57BL/6 mouse xenografted with mouse CT26 cells assessed as increase in CD3+ cytotoxic T cells at 50 mg/kg, po administered once daily for 21 days measured by flow cytometry analysis. It counts as functional. The following applies: time 21 day.
In series [19] the test system is B16. In words: Antiproliferative activity against mouse B16 cells after 72 hrs by MTT assay. It counts as functional, cell-based. The following applies: B16, 72 h.
Series [20] concerns CT26. In words: Induction of apoptosis in mouse CT26 cells assessed as apoptotic cells at 6 uM measured by Annexin V-FITC/PI staining based flow cytometry method. It counts as functional.

The structures appear in SMILES notation. Active and inactive are the calls of the source. No cut-off for these calls is given here.

Sequence of Histone deacetylase 2 (Q92769 whole entry): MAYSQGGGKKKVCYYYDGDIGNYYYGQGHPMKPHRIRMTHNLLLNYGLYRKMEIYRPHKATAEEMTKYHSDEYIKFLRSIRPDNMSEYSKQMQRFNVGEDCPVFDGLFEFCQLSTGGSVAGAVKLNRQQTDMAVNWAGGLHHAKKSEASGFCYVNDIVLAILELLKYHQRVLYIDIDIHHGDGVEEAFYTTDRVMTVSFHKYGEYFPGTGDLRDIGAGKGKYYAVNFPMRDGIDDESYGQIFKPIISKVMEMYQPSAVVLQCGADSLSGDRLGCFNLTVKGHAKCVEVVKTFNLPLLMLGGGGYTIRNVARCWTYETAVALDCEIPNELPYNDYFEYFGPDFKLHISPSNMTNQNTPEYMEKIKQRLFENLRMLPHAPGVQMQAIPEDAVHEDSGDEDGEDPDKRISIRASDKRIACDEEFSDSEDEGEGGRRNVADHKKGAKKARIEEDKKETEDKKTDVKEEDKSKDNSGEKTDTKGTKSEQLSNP
Sequence of Histone deacetylase 3 (O15379 whole entry): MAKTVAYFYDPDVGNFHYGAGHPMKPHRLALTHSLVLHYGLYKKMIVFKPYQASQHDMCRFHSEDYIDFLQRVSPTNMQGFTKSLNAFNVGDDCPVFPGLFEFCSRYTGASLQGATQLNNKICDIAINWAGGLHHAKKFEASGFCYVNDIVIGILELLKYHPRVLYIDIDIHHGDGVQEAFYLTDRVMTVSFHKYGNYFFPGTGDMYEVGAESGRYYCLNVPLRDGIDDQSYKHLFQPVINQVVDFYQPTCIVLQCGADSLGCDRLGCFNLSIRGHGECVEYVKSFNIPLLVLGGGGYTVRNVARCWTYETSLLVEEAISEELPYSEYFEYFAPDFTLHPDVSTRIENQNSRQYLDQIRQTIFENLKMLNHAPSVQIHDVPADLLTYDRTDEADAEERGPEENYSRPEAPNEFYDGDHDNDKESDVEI

Take `COc1cc(OCc2cccc(-c3ccccc3)c2C)cc(OC)c1CNCCCCCCC(=O)NO`: the inhibition entry in series [1] is “Dde”; in series [4] it was “Dde”; in [12], “Tde”; in [14] it was “Tde”. The acetylated alpha-tubulin accumulation result in [2] was “Active”. Also, the results for the IC50 in [3], in series [6] and in [10] were 2180 nM, 46 nM and 172 nM, respectively. Besides, the half-life came out at 102 min in series [5] and 67.9 min in [13] (liver microsomes). The remaining at 6 h was 23% in series [7] and 97% in series [11]. In addition, the microsomal CLint was found to be 34.1 µL/min/mg in series [8] and 20.4 µL/min/mg in series [9].
In the case of `O=C(CCCCCCC(=O)Nc1ccccc1)NO` [VORINOSTAT], the half-life in series [5] was 259 min. In addition, the remaining at 6 h was 20% in series [7] and 77% in [11]. The microsomal CLint in [8] was 4.02 µL/min/mg; in [9], 2.04 µL/min/mg. The Activity in series [15] came to 32.56%; in series [16], 27.99%; in series [17], 21.12%; in series [18] it was 57.83%; in series [20], 26%. Moreover, the t1/2 in series [13] (microsomes) is 693 min. The same compound showed an IC50 in [19] of 2260 nM.
As for `Cc1c(COc2ccc(CNCCCCCCC(=O)NO)c(OCc3cccc(C#N)c3)c2)cccc1-c1ccccc1`, the acetylated alpha-tubulin accumulation result in [2] is “Active”.
Same read-out and setting: then `COc1cc(OCc2cccc(-c3ccccc3)c2C)cc(OC)c1CNCCCCCC(=O)NO`, with “Active”.
With `COc1cc(OCc2cccc(-c3ccc4c(c3)OCCO4)c2C)cc(OC)c1CNCCCCCC(=O)NO`, the acetylated alpha-tubulin accumulation entry in series [2] was “Active”.
